ChEMBL document CHEMBL1201862, “PubChem BioAssay data set” (2004)
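Dose response: 5 concentrations. Exposure: 48 h. Format: 96-well plates. Endpoint: linear interpolation; highest concentration if not reached. Abbreviation: GI50, concentration required for 50% inhibition of growth.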 Active and inactive are the calls of the source. No stated cut-off is given here; in the data, active = GI50 up to about 1.1 µM and inactive = higher.

Key:
Assay in all cases: inhibition of tumour cell growth, NCI panel, 48 h
OVCAR-8 = tested on: OVCAR-8
MDA-N = tested on: MDA-N
DU-145 = tested on: DU-145
Malme-3M = tested on: Malme-3M
COLO 205 = tested on: COLO 205
UACC-257 = tested on: UACC-257
SW-620 = tested on: SW-620
SNB-75 = tested on: SNB-75
K562 = tested on: K562
NCI-H522 = tested on: NCI-H522
HT-29 = tested on: HT-29
RPMI-8226 = tested on: RPMI-8226
T47D = tested on: T47D
M14 = tested on: M14
SN12C = tested on: SN12C
MDA-MB-231 = tested on: MDA-MB-231
SNB-19 = tested on: SNB-19
HOP-92 = tested on: HOP-92
SK-OV-3 = tested on: SK-OV-3
HCT-15 = tested on: HCT-15
RXF 393 = tested on: RXF 393
U-251 = tested on: U-251
CAKI-1 = tested on: CAKI-1
MOLT-4 = tested on: MOLT-4
SF-268 = tested on: SF-268
ACHN = tested on: ACHN
IGROV-1 = tested on: IGROV-1
LOX IMVI = tested on: LOX IMVI
HL-60 = tested on: HL-60
MDA-MB-435 = tested on: MDA-MB-435
SF-295 = tested on: SF-295
UACC-62 = tested on: UACC-62
NCI-H226 = tested on: NCI-H226
MCF7 = tested on: MCF7
UO-31 = tested on: UO-31
NCI-H23 = tested on: NCI-H23
EKVX = tested on: EKVX
PC-3 = tested on: PC-3
KM12 = tested on: KM12
TK-10 = tested on: TK-10
786-0 = tested on: 786-0
A549 = tested on: A549
SK-MEL-2 = tested on: SK-MEL-2
HCT-116 = tested on: HCT-116
OVCAR-5 = tested on: OVCAR-5
A498 = tested on: A498
NCI/ADR-RES = tested on: NCI/ADR-RES
HCC 2998 = tested on: HCC 2998
SF-539 = tested on: SF-539
Hs-578T = tested on: Hs-578T
OVCAR-4 = tested on: OVCAR-4
NCI-H460 = tested on: NCI-H460
SK-MEL-28 = tested on: SK-MEL-28
OVCAR-3 = tested on: OVCAR-3
CCRF-CEM = tested on: CCRF-CEM
SK-MEL-5 = tested on: SK-MEL-5
HOP-62 = tested on: HOP-62
SR = tested on: SR

In the case of `CC1CC(N)=C(C#N)C1(C#N)C#N` (centres undefined), the GI50 (OVCAR-8) is reported as > 100 µM (inactive), the GI50 (MDA-N) is reported as > 100 µM (inactive) and the GI50 (DU-145) is reported as > 100 µM (inactive). The GI50 (Malme-3M) was > 100 µM (inactive), the GI50 (COLO 205) was > 100 µM (inactive) and the GI50 (UACC-257) was > 100 µM (inactive). For the same compound, the GI50 (SW-620) was > 100 µM (inactive), the GI50 (SNB-75) was 74.3 µM (inactive) and the GI50 (K562) was > 100 µM (inactive). For the same compound, the GI50 (NCI-H522) was > 100 µM (inactive), the GI50 (HT-29) was > 100 µM (inactive) and the GI50 (RPMI-8226) was > 100 µM (inactive). The GI50 (T47D) was > 100 µM (inactive), the GI50 (M14) was > 100 µM (inactive) and the GI50 (SN12C) was > 100 µM (inactive). For the same compound, the GI50 (MDA-MB-231) was > 100 µM (inactive), the GI50 (SNB-19) was > 100 µM (inactive) and the GI50 (HOP-92) was > 100 µM (inactive). The GI50 (SK-OV-3) was > 100 µM (inactive), the GI50 (HCT-15) was 28.4 µM and the GI50 (RXF 393) was > 100 µM (inactive). The GI50 (U-251) was > 100 µM (inactive), the GI50 (CAKI-1) was 24.3 µM (inactive) and the GI50 (MOLT-4) was > 100 µM (inactive). For the same compound, the GI50 (SF-268) was > 100 µM (inactive), the GI50 (ACHN) was > 100 µM (inactive) and the GI50 (IGROV-1) was > 100 µM (inactive). The GI50 (LOX IMVI) was > 100 µM (inactive), the GI50 (HL-60) was > 100 µM (inactive) and the GI50 (MDA-MB-435) was > 100 µM (inactive). The GI50 (SF-295) was > 100 µM (inactive), the GI50 (UACC-62) was > 100 µM (inactive) and the GI50 (NCI-H226) was > 100 µM (inactive). For the same compound, the GI50 (MCF7) was > 100 µM (inactive), the GI50 (UO-31) was > 100 µM (inactive) and the GI50 (NCI-H23) was > 100 µM (inactive). For the same compound, the GI50 (EKVX) was > 100 µM (inactive), the GI50 (PC-3) was > 100 µM (inactive) and the GI50 (KM12) was > 100 µM (inactive). For the same compound, the GI50 (TK-10) was > 100 µM (inactive), the GI50 (786-0) was > 100 µM (inactive) and the GI50 (A549) was > 100 µM (inactive). The GI50 (SK-MEL-2) was > 100 µM (inactive), the GI50 (HCT-116) was > 100 µM (inactive) and the GI50 (OVCAR-5) was > 100 µM (inactive). The GI50 (A498) was > 100 µM (inactive), the GI50 (NCI/ADR-RES) was > 100 µM (inactive) and the GI50 (HCC 2998) was > 100 µM (inactive). For the same compound, the GI50 (SF-539) was > 100 µM (inactive) and the GI50 (Hs-578T) was > 100 µM (inactive).

`CCOC(=O)Nc1ccc2c(c1)c(CCCCCCc1nc3ccccc3c3ccc(NC(=O)OCC)cc13)nc1ccccc12` was tested, and the GI50 (OVCAR-8) was 25.4 µM (inactive), the GI50 (MDA-N) was 61.2 µM (inactive) and the GI50 (DU-145) was > 100 µM (inactive). For the same compound, the GI50 (Malme-3M) was > 10 µM (inactive), the GI50 (COLO 205) was > 100 µM (inactive) and the GI50 (OVCAR-4) was 29.3 µM (inactive). The GI50 (NCI-H460) was 61.9 µM (inactive), the GI50 (UACC-257) was 47.2 µM (inactive) and the GI50 (SW-620) was > 100 µM (inactive). For the same compound, the GI50 (SK-MEL-28) was 52.6 µM (inactive), the GI50 (SNB-75) was 16.3 µM (inactive) and the GI50 (K562) was 80 µM (inactive). For the same compound, the GI50 (NCI-H522) was 22.9 µM (inactive), the GI50 (HT-29) was > 100 µM (inactive) and the GI50 (RPMI-8226) was > 100 µM (inactive). For the same compound, the GI50 (T47D) was > 100 µM (inactive), the GI50 (M14) was 29.1 µM (inactive) and the GI50 (SN12C) was 40.6 µM (inactive). For the same compound, the GI50 (MDA-MB-231) was 30.5 µM (inactive), the GI50 (SNB-19) was 30.1 µM (inactive) and the GI50 (HOP-92) was 21.8 µM (inactive). The GI50 (SK-OV-3) was 31.8 µM (inactive), the GI50 (HCT-15) was greater than 100 µM and the GI50 (RXF 393) was 47.2 µM (inactive). For the same compound, the GI50 (CAKI-1) was 34.8 µM (inactive), the GI50 (MOLT-4) was > 100 µM (inactive) and the GI50 (SF-268) was 26.5 µM (inactive). For the same compound, the GI50 (ACHN) was 39 µM (inactive), the GI50 (IGROV-1) was > 100 µM (inactive) and the GI50 (LOX IMVI) was 21.6 µM (inactive). The GI50 (HL-60) was > 100 µM (inactive), the GI50 (MDA-MB-435) was 59.7 µM (inactive) and the GI50 (OVCAR-3) was 21.3 µM (inactive). For the same compound, the GI50 (SF-295) was 49.5 µM (inactive), the GI50 (UACC-62) was > 100 µM (inactive) and the GI50 (NCI-H226) was 23.9 µM (inactive). For the same compound, the GI50 (MCF7) was > 100 µM (inactive), the GI50 (CCRF-CEM) was > 100 µM (inactive) and the GI50 (SK-MEL-5) was 78.9 µM (inactive). The GI50 (UO-31) was 68.4 µM (inactive), the GI50 (NCI-H23) was > 100 µM (inactive) and the GI50 (EKVX) was < 0.01 µM (active). For the same compound, the GI50 (HOP-62) was 27.7 µM (inactive), the GI50 (PC-3) was > 100 µM (inactive) and the GI50 (KM12) was > 100 µM (inactive). The GI50 (SR) was > 100 µM (inactive), the GI50 (TK-10) was 26.2 µM (inactive) and the GI50 (786-0) was 18.4 µM (inactive). For the same compound, the GI50 (A549) was 70 µM (inactive), the GI50 (SK-MEL-2) was 29.9 µM (inactive) and the GI50 (HCT-116) was 54.3 µM (inactive). The GI50 (OVCAR-5) was > 100 µM (inactive), the GI50 (A498) was 31.3 µM (inactive) and the GI50 (NCI/ADR-RES) was 41.2 µM (inactive). The GI50 (HCC 2998) was > 100 µM (inactive), the GI50 (SF-539) was 12.5 µM (inactive) and the GI50 (Hs-578T) was > 100 µM (inactive).

`C=C(CC(=O)Nc1ccc(C(=O)OC)o1)C(=O)OC` was tested, and the GI50 (OVCAR-8) was 36.9 µM (inactive), the GI50 (MDA-N) was > 10 µM (inactive) and the GI50 (DU-145) was 31.9 µM (inactive). For the same compound, the GI50 (Malme-3M) was 19.7 µM (inactive), the GI50 (COLO 205) was 19.6 µM (inactive) and the GI50 (OVCAR-4) was 30.7 µM (inactive). For the same compound, the GI50 (NCI-H460) was 29.9 µM (inactive), the GI50 (UACC-257) was 21.3 µM (inactive) and the GI50 (SW-620) was 22 µM (inactive). The GI50 (SK-MEL-28) was 23 µM (inactive), the GI50 (SNB-75) was 32.4 µM (inactive) and the GI50 (NCI-H522) was 19.9 µM (inactive). The GI50 (HT-29) was 26.5 µM (inactive), the GI50 (T47D) was 23.2 µM (inactive) and the GI50 (M14) was 19.1 µM (inactive). For the same compound, the GI50 (SN12C) was 24.9 µM (inactive), the GI50 (MDA-MB-231) was 27.7 µM (inactive) and the GI50 (SNB-19) was 25.3 µM (inactive). The GI50 (HOP-92) was 29.4 µM (inactive), the GI50 (SK-OV-3) was 28.7 µM (inactive) and the GI50 (HCT-15) was 24.7 µM. For the same compound, the GI50 (RXF 393) was 18.5 µM (inactive), the GI50 (U-251) was 35 µM (inactive) and the GI50 (CAKI-1) was 24.5 µM (inactive). The GI50 (MOLT-4) was 18.8 µM (inactive), the GI50 (SF-268) was 36.6 µM (inactive) and the GI50 (ACHN) was 18.7 µM (inactive). The GI50 (IGROV-1) was 23 µM (inactive), the GI50 (LOX IMVI) was 30.8 µM (inactive) and the GI50 (MDA-MB-435) was 17.8 µM (inactive). For the same compound, the GI50 (SF-295) was 34.5 µM (inactive), the GI50 (UACC-62) was 25.4 µM (inactive) and the GI50 (NCI-H226) was 26.5 µM (inactive). The GI50 (MCF7) was 17.9 µM (inactive), the GI50 (CCRF-CEM) was > 10 µM (inactive) and the GI50 (SK-MEL-5) was 18.5 µM (inactive). For the same compound, the GI50 (UO-31) was 20.6 µM (inactive), the GI50 (NCI-H23) was 28 µM (inactive) and the GI50 (EKVX) was 21.8 µM (inactive). The GI50 (HOP-62) was 73.3 µM (inactive), the GI50 (PC-3) was 23.6 µM (inactive) and the GI50 (KM12) was 19.9 µM (inactive). For the same compound, the GI50 (TK-10) was 20.8 µM (inactive), the GI50 (786-0) was 19.7 µM (inactive) and the GI50 (A549) was 18.2 µM (inactive). For the same compound, the GI50 (SK-MEL-2) was 20.7 µM (inactive), the GI50 (HCT-116) was 29.4 µM (inactive) and the GI50 (OVCAR-5) was 17.1 µM (inactive). The GI50 (A498) was 42.8 µM (inactive), the GI50 (NCI/ADR-RES) was 41.3 µM (inactive) and the GI50 (SF-539) was 17.3 µM (inactive). The GI50 (Hs-578T) was 53.1 µM (inactive).
